# Source: patent US20250019389A1, “HETEROCYCLIC AGONISTS” (Gasherbrum Bio, Inc., priority 2023, published 2025)
# Molecular target: GLP-1 Receptor (Homo sapiens (Human), UniProt P43220)
# Assay: GLP-1R agonist cAMP stimulation assay
# Format: cell-based
# Conditions: cAMP stimulation in HEK293/GLP1R/CRE-LUC cells, 30 min at 37° C., cAMP dynamic 2 Kit (Cisbio)
# Experimental: Activation of GLP-1 receptor is known to stimulate cyclic AMP (cAMP) production in cells which indicates primary coupling to the G as subunit of the G protein heterotrimeric complex.
# To optimize functional activity directed toward G αs coupling, a HEK293/CRE-Luc cell line developed by HDB stably expressing the GLP-1 Receptor was used. 200× concentration of compound working solutions were prepared (Agilent Technologies Bravo) with ½ log serial dilution in 384-well Echo LDV plate (Labcyte, Cat #LP-0200). 50 nL/well 200× concentration of compound working solutions were moved to 384-well white low volume plate (Greiner, Cat #784075) using Labcyte ECH0550.1×10^5 cells/mL HEK293/GLP1R/CRE-LUC (HD Biosciences) cell suspensions prepared with assay buffer [DPBS containing 0.5 mM IBMX (Sigma, Cat #I5879) and 0.1% BSA (GENVIEW, Cat #FA016-100 g)], 10 μL cell suspensions were added to each well of previous generated assay plate which already contains 50 nL compound at 200× concentration using ThermoFisher Multidrop Combi (1000 cells/well). Seal the plate and incubate at 37° C. with 5% CO2 for 30 min.
# After incubation the cAMP assay signal was generated using cAMP dynamic 2 Kit (Cisbio). 5 μL cAMP-d2 working solution was added to each well, followed with 5 μL Anti-cAMP antibody-cryptate working solution added to each well using ThermoFisher Multidrop Combi. Incubate at room temperature for 1 hour protected from light. Read the fluorescence at 665 and 615 nm with Reader PerkinElmer EnVision.
# Chain of GLP-1 Receptor (P43220 24-463, species assumed): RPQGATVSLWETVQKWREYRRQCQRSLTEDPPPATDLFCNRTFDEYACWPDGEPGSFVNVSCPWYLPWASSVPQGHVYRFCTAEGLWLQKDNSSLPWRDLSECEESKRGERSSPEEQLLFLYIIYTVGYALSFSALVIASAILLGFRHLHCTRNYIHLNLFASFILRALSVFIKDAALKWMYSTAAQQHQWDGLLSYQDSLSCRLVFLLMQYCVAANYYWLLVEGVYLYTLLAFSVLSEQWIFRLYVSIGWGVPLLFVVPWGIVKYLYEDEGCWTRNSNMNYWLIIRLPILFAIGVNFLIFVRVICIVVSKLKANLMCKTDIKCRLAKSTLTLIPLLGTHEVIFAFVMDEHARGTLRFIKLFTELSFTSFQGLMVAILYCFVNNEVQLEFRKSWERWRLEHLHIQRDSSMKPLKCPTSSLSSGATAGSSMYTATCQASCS
row,SMILES,EC50
1,"CCP(=O)(CCO)c1ccc(-n2ccn(-c3c4c(nn3-c3cc(C)c(F)c(C)c3)CCN(C(=O)c3cc5cc(C6CCOCC6)ccc5n3[C@@]3(c5noc(=O)[nH]5)C[C@@H]3C)[C@H]4C)c2=O)cc1NC (single isomer, unassigned) [Compound 102]",17 pM
2,"CCP(=O)(CCO)c1ccc(-n2ccn(-c3c4c(nn3-c3cc(C)c(F)c(C)c3)CCN(C(=O)c3cc5cc(C6CCOCC6)ccc5n3[C@@]3(c5noc(=O)[nH]5)C[C@@H]3C)[C@H]4C)c2=O)cc1NC (single isomer, unassigned) [Compound 103]",12 pM
3,"CCP(=O)(c1ccc(-n2ccn(-c3c4c(nn3-c3cc(C)c(F)c(C)c3)CCN(C(=O)c3cc5cc(C6CCOCC6)ccc5n3[C@@]3(c5noc(=O)[nH]5)C[C@@H]3C)[C@H]4C)c2=O)cc1NC)C(C)O (single isomer, unassigned) [Compound 105]",35 pM

# The next lines start with the values.
row,EC50,SMILES
1,29 pM,"CCP(=O)(c1ccc(-n2ccn(-c3c4c(nn3-c3cc(C)c(F)c(C)c3)CCN(C(=O)c3cc5cc(C6CCOCC6)ccc5n3[C@@]3(c5noc(=O)[nH]5)C[C@@H]3C)[C@H]4C)c2=O)cc1NC)C(C)O (single isomer, unassigned) [Compound 106]"
2,42 pM,"CCP(=O)(c1ccc(-n2ccn(-c3c4c(nn3-c3cc(C)c(F)c(C)c3)CCN(C(=O)c3cc5cc(C6CCOCC6)ccc5n3[C@@]3(c5noc(=O)[nH]5)C[C@@H]3C)[C@H]4C)c2=O)cc1NC)C(C)O (single isomer, unassigned) [Compound 107]"
3,31 pM,"CCP(=O)(c1ccc(-n2ccn(-c3c4c(nn3-c3cc(C)c(F)c(C)c3)CCN(C(=O)c3cc5cc(C6CCOCC6)ccc5n3[C@@]3(c5noc(=O)[nH]5)C[C@@H]3C)[C@H]4C)c2=O)cc1NC)C(C)O (single isomer, unassigned) [Compound 108]"
